Results: PubChem BioAssay AID2060332 (Molecular Pharmacology Branch, DTP, NCI, 2025)
Values joined by “and” are separate entries in the source; they are usually repeats but may differ in a detail not shown here. Equal values may be shown once.

Test system: LG0567-F671-PDC multi-cell spheroid viability
Assay: Anticancer human tumor LG0567-F671-PDC patient-derived lung adenocarcinoma cell line growth inhibition [IpAb]
Conditions: for viability, T/C: stronger effect = lower value
Excerpt: Combinatorial screen of targeted agents with ipatasertib and abemaciclib in multi-cell type tumor spheroids
A high-throughput screen of multi-cell type tumor spheroids was designed to identify active combinations of targeted small molecules and ipatasertib or abemaciclib. Complex spheroids include a stromal component modeled by human endothelial cells (HUVEC) and fibroblasts modeled by human mesenchymal stem cells (MSCs). The concentration ranges selected for each drug and investigational agent were based upon clinically achievable concentrations if the clinical Cmax of the agent was known.
Compounds. The drugs and investigational agents: ipatasertib (NSC767898), abemaciclib(NSC768073), selumetinib (NSC741078), trametinib (758246), adavosertib (NSC754352), everolimus (NSC733504), sapanisertib (NSC764658), vemurafenib (NSC761431), venetoclax (NSC766270), copanlisib (NSC809693), apelisib (NSC765974), palbociblib (NSC758247), vemurafenib (NSC761431), dabrafenib (NSC764134), ravoxertinib (NSC781343), BMS-387032 (NSC767048), sotorasib (NSC818433), talazoparib (NSC767125) and afursertib (NSC778305), were obtained from the National Cancer Institute (NCI) Developmental Therapeutics Program Chemical Repository. The FDA-approved anticancer drug set is available from the NCI Developmental Therapeutics Program. […] The stock solutions were prepared in dimethyl sulfoxide (DMSO, Sigma-Aldrich, St. Louis, MO, cat. D2650) at 800-fold the tested concentration and stored at -70 degrees C prior to their use. All drugs and investigational agents were tested over a range starting from a high concentration at or near the clinical Cmax and decreasing in half-log increments. If the clinical Cmax for an agent had not been determined, the highest concentration tested was 10 microM.
NCI60 Cell Culture. NCI60 cell lines were obtained from the NCI Developmental Therapeutics Program Tumor Repository. For each lot of cells, the Repository performed Applied Biosystems AmpFLSTR Identifiler testing with PCR amplification to confirm consistency with the published Identifier STR profile for each cell line. Cells were kept in continuous culture for no more than 20 passages. The optimal seeding densities for each of the cell lines at each time point assessed were determined prior to performing the concentration response studies. Briefly, the NCI60 human tumor lines were grown as monolayers in RPMI 1640 medium supplemented with 10% FBS and 2 mmol/L L-glutamine.
An additional 9 lines were from the NCI60 cell line panel including MDA-MB-231 breast carcinoma, MDA-MB-468 breast carcinoma, MCF7 breast carcinoma, Hs578T breast carcinoma, MALME-3M melanoma, SK-MEL-2 melanoma, SK-OV-3 ovarian carcinoma, DU-145 prostate carcinoma, PC-3 prostate carcinoma, all cell lines along with major genetic alterations are listed on Table 2. Pooled donor human umbilical vein endothelial cells (HUVEC, Lonza, cat. CC-2519) and human mesenchymal stem cells (hMSC, Lonza, cat. PT-2501) were purchased from Lonza (Walkersville, MD).
PDMR cell lines were grown in complete medium (DC medium): Dulbecco's modified Eagle's medium (DMEM)/F12 supplemented with 5% fetal bovine serum (FBS), 2 mM L-glutamine, 100 U/mL penicillin and 100 µg/ml streptomycin, 0.4 µg/ml hydrocortisone, 10 ng/ml epidermal growth factor (EGF) recombinant human protein, 24 µg/mL adenine, and 0.1 mg/mL primocin. During culture from frozen stock vials, PDMR cells were cultured in the same medium containing 10 µM Y-27632 (see Table 3). The PDCs were cultured in complete DMEM/F12 media without 10 microM Y-27632 dihydrochloride for at least two passages prior to the screen. The pooled donor HUVEC and hMSC were cultured in endothelial cell growth medium 2 (PromoCell, Heidelberg, Germany, cat. C-22011) and mesenchymal stem cell growth medium 2 (PromoCell, cat. C-28009), respectively. For all experiments, HUVEC and hMSC were used at passages </=5.
[…]

[1] = compound alone, run of 06/01/2021
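Further: viability read after 7 days of drug exposure.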
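Wherever viability, T/C is given: 100% = DMSO vehicle control luminescence.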

`C=CC(=O)N1CCN(c2nc(=O)n(-c3c(C)ccnc3C(C)C)c3nc(-c4c(O)cccc4F)c(F)cc23)C(C)C1` (stereo unspecified) was tested, and the viability, T/C (compound 0.0316 µM) was 26.6% and 19.1%, the viability, T/C (compound 0.1 µM) was 18.9% and 20.1% and the viability, T/C (compound 0.316 µM) was 19.7% and 18.1%. The viability, T/C (compound 1 µM) was 18.6% and 17.6%, the viability, T/C (compound 3.16 µM) was 16% and 20.2% and the viability, T/C (compound 10 µM) was 20.3% and 18.5%. For the same compound, the IC50 (curve of compound) was < 31.6 nM.

For `C=CCn1c(=O)c2cnc(Nc3ccc(N4CCN(C)CC4)cc3)nc2n1-c1cccc(C(C)(C)O)n1`, the viability, T/C (compound 0.0316 µM) was 101% and 104%, the viability, T/C (compound 0.1 µM) was 76.4% and 73.2% and the viability, T/C (compound 0.316 µM) was 46.1% and 54.2%. For the same compound, the viability, T/C (compound 1 µM) was 45.3% and 54%, the viability, T/C (compound 3.16 µM) was 37.1% and 57.6% and the viability, T/C (compound 10 µM) was 30.6% and 41.5%.

With `CC(=O)c1c(C)c2cnc(Nc3ccc(N4CCNCC4)cn3)nc2n(C2CCCC2)c1=O` the viability, T/C (compound 0.000949 µM) was 95.7% and 102%, the viability, T/C (compound 0.003 µM) was 78.4% and 87.8% and the viability, T/C (compound 0.00949 µM) was 107% and 91.7%. The viability, T/C (compound 0.03 µM) was 68.7% and 76.1%, the viability, T/C (compound 0.0949 µM) was 91.7% and 72.5% and the viability, T/C (compound 0.3 µM) was 86.8% and 82.4%. For the same compound, the IC50 (curve of compound) was > 300 nM.

`CC(C)(C)c1cnc(CSc2cnc(NC(=O)C3CCNCC3)s2)o1` was tested, and the viability, T/C (compound 0.00949 µM) was 110% and 111%, the viability, T/C (compound 0.03 µM) was 113% and 95.4% and the viability, T/C (compound 0.0949 µM) was 97.6% and 73.8%. For the same compound, the viability, T/C (compound 0.3 µM) was 6.76% and 3.49%, the viability, T/C (compound 0.949 µM) was 2.03% and 1.44% and the viability, T/C (compound 3 µM) was 0.9% and 0.89%. For the same compound, the IC50 (curve of compound) was 173 nM and 140 nM.

In the case of `CC(C)NCC(C(=O)N1CCN(c2ncnc3c2C(C)CC3O)CC1)c1ccc(Cl)cc1` (stereo unspecified), the viability, T/C (compound 0.316 µM) is reported as 71.7% [middle of 13 runs], the viability, T/C (compound 10 µM) is reported as 71.6% [middle of 13 runs] and the IC50 [1] is reported as > 10000 nM.

`CC(C)n1nc(-c2ccc3oc(N)nc3c2)c2c(N)ncnc21` was tested, and the viability, T/C (compound 0.000316 µM) was 108% and 95.6%, the viability, T/C (compound 0.001 µM) was 79.7% and 87.8% and the viability, T/C (compound 0.00316 µM) was 90.1% and 102%. The viability, T/C (compound 0.01 µM) was 64% and 55.8%, the viability, T/C (compound 0.0316 µM) was 78.1% and 50% and the viability, T/C (compound 0.1 µM) was 66.9% and 56.8%. For the same compound, the IC50 (curve of compound) was > 100 nM.

For `CC1(C)CCC(CN2CCN(c3ccc(C(=O)NS(=O)(=O)c4ccc(NCC5CCOCC5)c([N+](=O)[O-])c4)c(Oc4cnc5[nH]ccc5c4)c3)CC2)=C(c2ccc(Cl)cc2)C1`, the viability, T/C (compound 0.0316 µM) was 96.3% and 101%, the viability, T/C (compound 0.1 µM) was 87.4% and 110% and the viability, T/C (compound 0.316 µM) was 86.8% and 105%. The viability, T/C (compound 1 µM) was 112% and 113%, the viability, T/C (compound 3.16 µM) was 145% and 143% and the viability, T/C (compound 10 µM) was 25.2% and 23%. The IC50 (curve of compound) was 7020 nM and 7120 nM.

`CCCS(=O)(=O)Nc1ccc(F)c(C(=O)c2c[nH]c3ncc(-c4ccc(Cl)cc4)cc23)c1F` was tested, and the viability, T/C (compound 0.0316 µM) was 101% and 97.6%, the viability, T/C (compound 0.1 µM) was 117% and 154% and the viability, T/C (compound 0.316 µM) was 143% and 135%. For the same compound, the viability, T/C (compound 1 µM) was 138%, the viability, T/C (compound 3.16 µM) was 197% and 189% and the viability, T/C (compound 10 µM) was 215% and 179%. For the same compound, the IC50 (curve of compound) was > 10000 nM.

`CCN1CCN(Cc2ccc(Nc3ncc(F)c(-c4cc(F)c5nc(C)n(C(C)C)c5c4)n3)nc2)CC1` was tested, and the IC50 [1] was > 1000 nM.

For `COc1c(OCCCN2CCOCC2)ccc2c3n(c(=NC(=O)c4cnc(N)nc4)nc12)CCN3`, the viability, T/C (compound 0.00316 µM) was 102%, the viability, T/C (compound 0.01 µM) was 75.8% and 88.7% and the viability, T/C (compound 0.0316 µM) was 59.6% and 64.5%. For the same compound, the viability, T/C (compound 0.1 µM) was 48.8% and 42.4%, the viability, T/C (compound 0.316 µM) was 35.9% and 36.7% and the viability, T/C (compound 1 µM) was 33.4% and 31.1%. The IC50 (curve of compound) was 75 nM and 69.6 nM.

With `Cc1nc(NC(=O)N2CCCC2C(N)=O)sc1-c1ccnc(C(C)(C)C(F)(F)F)c1` (stereo unspecified) the viability, T/C (compound 0.0316 µM) was 85.2%, the viability, T/C (compound 0.1 µM) was 79.3% and 90.2% and the viability, T/C (compound 0.316 µM) was 59.3% and 74%. For the same compound, the viability, T/C (compound 1 µM) was 44.5% and 52.8%, the viability, T/C (compound 3.16 µM) was 66.8% and 49.1% and the viability, T/C (compound 10 µM) was 50.2% and 46.2%. For the same compound, the IC50 (curve of compound) was > 10000 nM and 1800 nM.
